Laboratory results reported in US20140249143A1, “Compounds And Methods For Enhancing Innate Immune Responses” (GlaxoSmithKline LLC, priority 2011, published 2014).

Key:
[1] = tested on: interferon stimulated genes (ISGs); test: Expression of interferon stimulated genes in HCV replicon cells (real time RT-PCR); type: cell-based
Description: The up-regulation of interferon stimulated genes upon treatment with Example 1 was monitored by quantitative real time RT-PCR using specific primers for each gene, as shown in FIG. 3. […] Total RNA was isolated using RNeasy 96 kit (Qiagen) and converted to cDNA using High Capacity cDNA reverse transcription kit (Applied Biosystems). For real time PCR, the cDNA was used for PCR reactions using TaqMan Fast Universal PCR master mix (Applied Biosystems) and specific primers (Applied Biosystems). As housekeeping genes, actin and GAPDH were used for normalization. Data was calculated by the ΔΔCt method and fold change determined compared to DMSO-treated control samples.

[2] = target: T1, human JAK1 (Homo sapiens, UniProt P23458); test: JAK1 reconstitution in U4A and 2fGH cells (phosphor-STAT1 western blot, Taqman mRNA); type: cell-based
T1 construct: expressed in transfected cells; host or cells: U4A cells (JAK1-deficient derivative of the human fibroblast line 2fGH), transduced with a baculovirus mammalian expression system
Protocol: 2fGH and U4A cells were obtained from the Cleveland Clinic. 2fGH is a human fibroblast cell line and U4A cell line is a derivative 2fGH harboring a defect in JAK1 expression (Muller, et al., Nature 366, 129-135 (1993)). Green fluoroscent protein (GFP) or human JAK1 was transduced in U4A cells by baculovirus mammalian expression system. After 24 hours post transduction, the cells were treated with DMSO, Example 1 (10 μM), IFNα (100 U/ml), IFNβ (100 U/ml), or IFNγ (100 U/ml). Untransduced U4A cells and 2fGH cells were included as controls for 6 or 18 hours. The cells were harvested at indicated time points and used for detecting phosphor-STAT1 by western blot (FIG. 10, panel A) or for mRNA analysis by Taqman quantitation (FIG. 10, panel B).
The total cell lysates were analyzed on a 4-20% SDS-PAGE gradient gel and followed by immunoblotting using anti-phopho STAT1 antibody (Cell Signaling). The level of actin was monitored as a loading control. The bands were visualized by the alkaline phosphatase activity conjugated with the secondary antibody (Promega) using ProtoBlot II AP system (Promega).
Gene expression was measured using TaqMan Fast Universal PCR Master Mix (Applied Biosystems) and gene specific probes and murine primers in HT7900 FAST System (Invitrogen). As housekeeping genes, actin and GAPDH were used for normalization. Data was calculated by the ΔΔCt method and fold change determined compared to non-treated control samples.

[3] = tested on: reconstructed human epidermis (RHE) keratinocytes; test: JAK/STAT induction in reconstructed human epidermis (western blot, real-time PCR); type: cell-based; conditions: 10 μM (IFN-alpha 100 U/mL), 6 and 72 hrs
Protocol: First, reconstructed human epidermis (“RHE”) consisting of cultured human keratinocyte cells were incubated in triplicate with media containing either the media alone, media+0.1% DMSO, media containing 10 μM of several putative JAK/STAT activator compounds described herein in Tables 1 and 2 (Example 1, Example 2, Example 11, and compound no. 89 (as a negative control)), or media containing 100 U/mL of a positive control Interferon-alpha (IFN-alpha) recombinant protein at 37° C. in a humidified atmosphere containing 5% CO2, for 6 and 72 hours.
At the end of the incubation period, the RHE tissues were cut into two sections. One section was ¼ of the total size and the second section was […].

[4] = tested on: HCV replication in 1b HCV replicon cells; test: siRNA knockdown of JAK/STAT pathway factors in 1b HCV replicon cells; type: cell-based, Hepatitis C virus; conditions: 2 μM, 30 h, 50 nM siRNA
Protocol: 50 nM of siRNA against each gene (Dharmacon, on-target SMART pool: L-020209-00-0005 (IFNAR1), L-015411-00-0005 (IFNAR2), L-007981-00-0005 (IL28RA), L-007926-00-0005 (IL10RB), L-011-57-00-0005(IFNGR1), L-012713-00-0005 (IFNGR2), L-003145-00-0005 (JAK1), L-003146-00-0005 (JAK2), L-003182-00-0005 (Tyk2), L-003147-00-0 005 (JAK3), L-003543-00-0005 (STAT1), L-012064-00-0005 (STAT2)) was transfected in the 1b HCV replicon cells using lipofectamine RNAiMax™ (Invitrogen) according to the manufacturer's protocol. A scrambled irrelevant smart pool control siRNA was included as a control (IRR). After 3 days post transfection, the cells were treated with DMSO, IFNα (5 U/ml), IFNγ (100 U/ml), and Example 1 (2 μM) in triplicate for 30 h. The cells were harvested with Bright-Glo (Promega) and the HCV replication was measured by luminescence. […] To measure the efficiency of the knockdown, total RNA was harvested from the siRNA-transfected cells at day 3 post transfection and analyzed by real time RT-PCR.

[5] = tested on: respiratory syncytial virus (RSV); test: RSV plaque assay on HEp-2 cells; type: cell-based
Protocol: A broad spectrum of antiviral activity of Example 1 was accessed by testing it for potency against other viruses. (See FIG. 8). […] RSV (long form) was inoculated on the layer of HEp-2 cells at multiplicity of infection of <0.001. After 4 hour post infection, the inoculum was replaced with 0.3% agarose containing MEM and various concentration of Example 1 or IFNα. The cells were incubated for up to 5-6 days until the plaques were visible. The cells were then fixed with 3% formaldehyde and stained with neutral red for visualization.

T1 sequence (P23458 whole entry): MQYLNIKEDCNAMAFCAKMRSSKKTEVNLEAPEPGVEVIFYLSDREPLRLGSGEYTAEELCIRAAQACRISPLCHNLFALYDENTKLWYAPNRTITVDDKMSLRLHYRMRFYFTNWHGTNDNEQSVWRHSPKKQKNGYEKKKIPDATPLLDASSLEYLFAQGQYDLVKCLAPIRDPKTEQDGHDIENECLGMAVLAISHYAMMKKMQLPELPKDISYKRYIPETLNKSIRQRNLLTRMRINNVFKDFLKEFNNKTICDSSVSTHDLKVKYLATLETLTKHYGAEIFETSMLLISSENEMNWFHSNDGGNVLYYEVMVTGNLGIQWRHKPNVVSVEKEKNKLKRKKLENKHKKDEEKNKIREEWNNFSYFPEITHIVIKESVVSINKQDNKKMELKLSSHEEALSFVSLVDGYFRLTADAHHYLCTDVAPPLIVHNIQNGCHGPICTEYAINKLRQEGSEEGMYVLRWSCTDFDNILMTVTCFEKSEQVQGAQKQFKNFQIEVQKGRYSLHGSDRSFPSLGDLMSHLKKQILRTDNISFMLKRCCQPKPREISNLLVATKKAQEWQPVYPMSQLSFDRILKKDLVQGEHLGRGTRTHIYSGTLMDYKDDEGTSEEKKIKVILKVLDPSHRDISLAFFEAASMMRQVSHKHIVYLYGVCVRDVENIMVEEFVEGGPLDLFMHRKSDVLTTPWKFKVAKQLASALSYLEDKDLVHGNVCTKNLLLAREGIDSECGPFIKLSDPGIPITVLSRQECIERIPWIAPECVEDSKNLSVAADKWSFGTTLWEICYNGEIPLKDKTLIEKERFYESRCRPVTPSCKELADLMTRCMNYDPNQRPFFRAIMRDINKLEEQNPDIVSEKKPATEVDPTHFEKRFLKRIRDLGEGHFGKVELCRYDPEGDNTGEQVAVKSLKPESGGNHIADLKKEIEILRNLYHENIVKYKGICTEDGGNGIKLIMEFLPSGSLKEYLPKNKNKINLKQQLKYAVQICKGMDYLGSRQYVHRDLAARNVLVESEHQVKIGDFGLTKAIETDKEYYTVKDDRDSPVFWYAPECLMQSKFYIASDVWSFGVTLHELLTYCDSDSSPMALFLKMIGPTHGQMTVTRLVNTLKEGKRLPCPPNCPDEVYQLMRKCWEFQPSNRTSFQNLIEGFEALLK

## FC(F)(F)c1cc(C(F)(F)F)c2ccc3nc(-c4nnco4)cn3c2n1 [Compound 1, 2-[2,4-bis(trifluoromethyl)imidazo[1,2-a]1,8-naphthyridin-8-yl]-1,3,4-oxadiazole]
[1]; 2 μM
  induction of IFNα and β mRNA (IFNA1, IFNA2, IFNB1): no induction
[1]; 2 μM, time course 1.5-48 h
  induction of ISGs (ISG15, Mx1, OAS1, OAS2, CXCL10, IFIH1, STAT2): induction of various known ISGs
[1]; Example 1 2 μM, IFNα 100 U/ml
  time of maximum induction of ISGs: 8 h
[2]; 10 μM
  CXCL9 expression in U4A cells transduced with JAK1: marked up-regulation
  OAS2 mRNA in parental cell line (2fGH): marked increase
[2]; Example 1 10 μM, IFNα 100 U/ml
  activation of STAT1 in U4A cells transduced with JAK1: activation of STAT1 was observed
  p-STAT1 in U4A cells (JAK1 deficient) transduced with GFP: not present
[3]
  Stat1 phosphorylation (western blot): Stat1 phosphorylation
[4]
  antiviral activity after knockdown of IFNAR2, JAK1, STAT1, or STAT2: affected the antiviral activity
  antiviral activity after knockdown of JAK1: fully abolished
  antiviral activity after knockdown of other Janus kinases (JAKs): did not show any effect
[5]; 1 μM, compared to DMSO-only
  RSV plaques: reduced the number of plaques
[5]; 5 μM
  RSV plaques: no visible clear plaque
